# Assay results: patent publication US9388147B2 (Receptos, Inc., priority 2009, dated 2016)
# pEC50: −log10 of the molar value. Like-named read-outs stand apart in the source and are kept apart here.
# Columns and labels:
# S1P1 R120A/E121A = molecular target: T1, S1P1 R120A/E121A (Homo sapiens, UniProt P21453, E121A/R120A); test: Phosphorylated-ERK1/2 In Cell Western, S1P1 R120A/E121A mutant in CHOK1 cells; assay type: cell-based
# T1 construct: expressed in transfected cells; host or cells: CHOK1
# T1 sequence (P21453 whole entry R120A/E121A): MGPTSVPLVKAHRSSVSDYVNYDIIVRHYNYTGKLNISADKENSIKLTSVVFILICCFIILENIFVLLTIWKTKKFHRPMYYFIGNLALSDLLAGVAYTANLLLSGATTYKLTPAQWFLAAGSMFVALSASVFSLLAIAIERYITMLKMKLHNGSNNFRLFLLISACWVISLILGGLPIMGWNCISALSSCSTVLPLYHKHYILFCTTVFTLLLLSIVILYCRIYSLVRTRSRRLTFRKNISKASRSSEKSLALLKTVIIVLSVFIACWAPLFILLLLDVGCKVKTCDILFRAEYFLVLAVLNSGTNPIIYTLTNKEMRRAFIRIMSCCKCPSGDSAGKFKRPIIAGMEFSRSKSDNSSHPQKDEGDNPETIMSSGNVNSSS
# Description: (§1) A. Quick-change mutagenesis with PfuTurbo DNA polymerase (Stratagene) was conducted using S1P1/pcDNA3.1 (Missouri S&T cDNA Resource Centre) as the template. Primers were as follows: […]
# (§2) PCR conditions were 15 cycles with the following parameters: 95° C. 30 sec, 58° C. 30 sec, 68° C. for 60 sec. All constructs were sequence verified.
# (§3) CHOK1 cells were transfected using Fugene (Roche). Stably expressing mixed pools were selected with 2 mg/ml G418. Expression of functional S1P1/EDG1 receptor was confirmed by cell surface FACS with a S1P1 antibody (R&D Systems, clone 218713). Stable pools were seeded at 40,000 cells/well in a clear bottom 96-well tray, and incubated at 37° C. in 5% CO2 for 18 hrs. Cells were serum-starved in FreeStyle 293 medium (Invitrogen) for 4-6 h, then incubated for 5 min with a dose response of compound, in duplicate. Cells were fixed with 4% paraformaldehyde for 20 min, permeabilized with 0.1% Triton X-100 in PBS (4×5 min washes) and blocked for 1 h in Odyssey Blocking Buffer (LI-COR). All incubations were at room temperature. Cells were incubated for 18 h at 4° C. in Rabbit anti-Phospho-ERK1/2 (Cell Signaling #4377) and Mouse anti-ERK1/2 (Cell Signaling #9107) both diluted 1:800 in Odyssey Blocking Buffer. Plates were washed with 0.1% Tween-20 in PBS and then incubated with Odyssey Blocking Buffer containing IRDye 680-labeled goat anti-rabbit antibody (#926-32221; diluted 1/500) and IRDye 800CW-labeled goat anti-mouse antibody (#926-32210; diluted 1/1000). Plates were washed with 0.1% Tween-20 in PBS, all liquid was removed from the wells and the plates were scanned using a LICOR Odyssey scanner. The phospho-ERK1/2 signal was normalized to the ERK1/2 signal. Data was analyzed by non-linear regression using GraphPad Prism to determine the EC50 of binding.
# S1P1 N101A = molecular target: T2, S1P1 N101A (Homo sapiens, UniProt P21453, N101A); test: Phosphorylated-ERK1/2 In Cell Western, S1P1 N101A mutant in CHOK1 cells; assay type: cell-based
# T2 construct: expressed in transfected cells; host or cells: CHOK1
# T2 sequence (P21453 whole entry N101A): as the sequence (P21453 whole entry R120A/E121A) above, with N101A, A120R, A121E counted along it
# Description: as §1, §2, §3
# S1P1 W269L = molecular target: T3, S1P1 W269L (Homo sapiens, UniProt P21453, W269L); test: Phosphorylated-ERK1/2 In Cell Western, S1P1 W269L mutant; assay type: cell-based
# T3 construct: expressed in transfected cells; host or cells: CHOK1
# T3 sequence (P21453 whole entry W269L): as the sequence (P21453 whole entry R120A/E121A) above, with A120R, A121E, W269L counted along it
# Description: as §3, with “The phospho-ERK1/2 signal was normalized to the ERK1/2 signal.” left out, “binding. […]” for “binding.”
# S1P1/EDG1 [1] = molecular target: T4, S1P1/EDG1 (Homo sapiens, UniProt P21453); test: Phosphorylated-ERK1/2 In Cell Western, wild type S1P1 in CHOK1 cells; assay type: cell-based
# T4 sequence (P21453 whole entry): as the sequence (P21453 whole entry R120A/E121A) above, with A120R, A121E counted along it
# Description: as §3, with “The phospho-ERK1/2 signal was normalized to the ERK1/2 signal.” left out
# S1P1/EDG1 [2] = molecular target: T4, S1P1/EDG1; test: S1P1 CRE-bla CHOK1 reporter assay, inhibition of Forskolin induced cAMP; assay type: cell-based
# In short: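 Read-out is a FRET β-lactamase substrate (2 h, room temperature) after 4 h, 37 °C compound treatment under 2 μM Forskolin in stable S1P1-transfected CRE-bla CHO-K1 cells. Ten-point curves; non-linear regression gives EC50 for inhibition of Forskolin-stimulated cAMP.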
# S1P2 = molecular target: T5, S1P2 (Homo sapiens, UniProt O95136); test: Specificity over other S1P receptors: S1P2 CRE-bla CHOK1 reporter assay; assay type: cell-based; conditions: S1P2 CRE-bla CHOK1, without Forskolin; read-out: S1P2 agonist value (EC50)
# T5 construct: expressed in transfected cells; host or cells: CRE-bla CHOK1
# T5 sequence (O95136 whole entry, species assumed): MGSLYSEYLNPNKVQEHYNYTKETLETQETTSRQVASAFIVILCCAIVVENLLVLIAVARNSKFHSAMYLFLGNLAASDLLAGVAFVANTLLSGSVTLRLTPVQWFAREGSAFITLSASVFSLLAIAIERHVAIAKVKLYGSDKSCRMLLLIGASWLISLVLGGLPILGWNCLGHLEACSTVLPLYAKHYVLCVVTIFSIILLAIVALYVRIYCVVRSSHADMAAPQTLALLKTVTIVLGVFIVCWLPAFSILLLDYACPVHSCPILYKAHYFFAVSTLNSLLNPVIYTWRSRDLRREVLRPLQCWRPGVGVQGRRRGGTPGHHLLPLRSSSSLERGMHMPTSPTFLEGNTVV
# Description: (§4) Cells were seeded into 384-well black wall/clear bottom plates at 10^4 cells/well/19.5 μl assay media (DMEM-phenol free, 0.5% charcoal/dextran stripped serum, 2 mM glutamine, 0.1 mM NEAA, 1 mM Na-Pyruvate, 25 mM Hepes) and incubated for 18 hrs at 37° C. in 5% CO2. Dose response curves (10-point) were generated in 10 mM Hepes, 0.1% Pluronic F127, in the presence of Forskolin. Cells were treated with 0.5 μl compound in the presence of 2 μM Forskolin for 4 hrs at 37° C. The FRET-based β-lactamase fluorescent substrate (LiveBLAzer™-FRET B/G Loading Kit CC4-AM; Invitrogen) was prepared according to manufacturer's directions, and incubated with cells for 2 hrs at room temperature. Plates were read at Ex:410/Em:458 and Ex:410/Em:522, and the response ratio determined. Data was analyzed by non-linear regression to determine the EC50 for inhibition of Forskolin induced cAMP.
# (§5) To assess compound specificity on other S1P receptors the following cell lines were used: S1P2 CRE-bla CHOK1, S1P3-Gα15 NFAT-bla HEK293T (Invitrogen), S1P4-bla TANGO U2OS (Invitrogen), S1P5-bla TANGO U2OS (Invitrogen). The same assay set up for S1P1 was used but without Forskolin. S1P4 and S1P5 assays were performed in FreeStyle Expression medium (Invitrogen). S1P5 cells were incubated for 48 hrs in prior to treatment with compound.
# S1P5 = molecular target: T6, S1P5 (Homo sapiens, UniProt Q9H228); test: Specificity over other S1P receptors: S1P5-bla TANGO U2OS assay; assay type: cell-based; conditions: read-out: S1P5 agonist value (EC50)
# T6 construct: Tango fusion (own knowledge: protease cleavage site plus GAL4-VP16 transcription factor at the receptor's C-terminus); host or cells: U2OS (Tango -bla)
# T6 sequence (Q9H228 whole entry, the tested form may be a part): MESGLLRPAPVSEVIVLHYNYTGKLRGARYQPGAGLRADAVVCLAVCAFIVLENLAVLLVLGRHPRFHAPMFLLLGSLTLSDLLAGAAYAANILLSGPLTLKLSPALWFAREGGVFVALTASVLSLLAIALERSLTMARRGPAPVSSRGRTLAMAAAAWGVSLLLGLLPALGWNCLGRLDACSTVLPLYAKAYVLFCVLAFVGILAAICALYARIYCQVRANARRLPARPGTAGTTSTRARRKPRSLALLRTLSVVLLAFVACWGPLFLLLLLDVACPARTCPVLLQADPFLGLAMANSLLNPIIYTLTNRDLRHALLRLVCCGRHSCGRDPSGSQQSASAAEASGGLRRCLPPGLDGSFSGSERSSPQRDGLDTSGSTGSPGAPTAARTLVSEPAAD
# Description: as §4, §5
# S1P3 = molecular target: T7, S1P3 (Homo sapiens, UniProt Q99500); test: Specificity over other S1P receptors: S1P3-Gα15 NFAT-bla HEK293T reporter assay; assay type: cell-based; conditions: without Forskolin, read-out: S1P3 agonist value (EC50)
# T7 construct: host or cells: NFAT-bla HEK293T
# T7 sequence (Q99500 whole entry): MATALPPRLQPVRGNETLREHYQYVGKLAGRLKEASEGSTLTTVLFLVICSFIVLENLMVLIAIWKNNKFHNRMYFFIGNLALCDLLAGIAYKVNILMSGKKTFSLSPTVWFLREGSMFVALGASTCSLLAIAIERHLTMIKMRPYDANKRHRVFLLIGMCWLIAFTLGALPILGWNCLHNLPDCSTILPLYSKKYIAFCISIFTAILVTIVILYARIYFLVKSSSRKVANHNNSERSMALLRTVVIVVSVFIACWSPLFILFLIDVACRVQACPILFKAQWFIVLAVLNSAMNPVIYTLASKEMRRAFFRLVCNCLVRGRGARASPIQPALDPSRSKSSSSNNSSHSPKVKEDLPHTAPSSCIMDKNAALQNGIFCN
# Description: as §4, §5
# S1P4 = molecular target: T8, S1P4 (Homo sapiens, UniProt O95977); test: Specificity over other S1P receptors: S1P4-bla TANGO U2OS assay; assay type: cell-based; conditions: read-out: S1P4 agonist value (EC50)
# T8 construct: Tango fusion (own knowledge: protease cleavage site plus GAL4-VP16 transcription factor at the receptor's C-terminus); host or cells: U2OS (Tango -bla)
# T8 sequence (O95977 1-384): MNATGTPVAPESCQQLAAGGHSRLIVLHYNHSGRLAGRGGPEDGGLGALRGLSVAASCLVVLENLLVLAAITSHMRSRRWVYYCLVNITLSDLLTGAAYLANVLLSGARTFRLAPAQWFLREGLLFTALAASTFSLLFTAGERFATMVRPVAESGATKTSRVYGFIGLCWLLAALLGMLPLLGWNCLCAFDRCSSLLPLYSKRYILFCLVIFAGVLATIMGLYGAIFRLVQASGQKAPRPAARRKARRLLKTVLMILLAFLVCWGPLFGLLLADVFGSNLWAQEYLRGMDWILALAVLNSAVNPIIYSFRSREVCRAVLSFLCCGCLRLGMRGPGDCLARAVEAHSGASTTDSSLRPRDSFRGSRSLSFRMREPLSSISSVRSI
# Description: as §4, §5
# [3] = tested on: CD4 or CD8 positive T cells; test: Lymphopenia in mice; assay type: in vivo; conditions: female C57BL6 mice, 1 mg/kg oral gavage, area under the effect curve over 24 h
# Description: In mice: Female C57BL6 mice (Simonsen Laboratories, Gilroy Calif.) were housed in an ALAAC accredited facility and the research was approved by the facilities Institutional Animal Care and Use Committee (IACUC). The animals were acclimated to the laboratory for at least 5 days prior to initiation of experiments. Mice (n=3/compound/time-point) were dosed by oral gavage with 1 mg/kg compound formulated in a vehicle consisting of 5% DMSO/5% Tween 20 and 90% 0.1N HCl. Control mice were dosed PO with the vehicle. Terminal whole blood samples were collected from isoflurane anesthetized mice by cardiac puncture into EDTA. Whole blood was incubated with rat anti-mouse CD16/CD32 (Mouse BD Fc Block, #553141), PE-Rat anti-mouse CD45R/B220 (BD #553089), APC-Cy7-Rat anti-mouse CD8a (BD #557654), and Alexa Fluor647-Rat anti-mouse CD4 (BD #557681) for 30 min on ice. Red blood cells were lysed using BD Pharm Lyse Lysing buffer (#555899) and white blood cells were analyzed by FACS. Lymphopenia was expressed as the % of white blood cells that were CD4 or CD8 positive T cells. The overall lymphopenia response over 24 h was estimated by calculating the area under the effect curve (AUEC) using the linear trapezoidal rule.
# peripheral T-cell counts = test: Lymphopenia in rats, 3-5 day multiple dose regimen; assay type: in vivo, rat; conditions: female rats, oral, 24 h after final dose of a 3-5 day multiple dose regimen
# Description: In rats: Female rats (Simonsen Laboratories, Gilroy Calif.) were housed in an ALAAC accredited facility and the research was approved by the facilities Institutional Animal Care and Use Committee (IACUC). The animals were acclimated to the laboratory for at least 5 days prior to initiation of experiments. Rats (n=3/compound/time-point) were dosed by oral gavage with 1 mg/kg compound formulated in a vehicle consisting of 5% DMS0/5% Tween 20 and 90% 0.1N HCL. Control rats were dosed PO with the vehicle. Whole blood was collected from isoflurane anesthetized rats via the retro-orbital sinus and terminal samples were collected by cardiac puncture into EDTA. Whole blood was incubated with mouse anti-rat CD32 (BD #550271), PE-mouse anti-rat CD45R/B220 (BD #554881), PECy5-mouse anti-rat CD4 (BD #554839), and APC-mouse anti-rat CD8a (eBioscience #17-0084) for 30 minutes on ice. Red blood cells were lysed using BD Pharm Lyse Lysing buffer (#555899) and white blood cells were analyzed with a BD FACSArray. Lymphopenia was expressed as the % of white blood cells that were CD4 or CD8 positive T cells. The overall lymphopenia response over 24 h was estimated by calculating the area under the effect curve (AUEC) using the linear trapezoidal rule.
# (§6) The compounds listed in Table 6 were formulated as suspensions in a vehicle consisting of 0.5% carboxymethyl cellulose (Acros Organics) in purified water (pH adjusted to ˜2.2 with hydrochloric acid). The same formulation was used in the rat lymphopenia and toxicology studies described below. The concentration of each compound in suspension was verified to be within ±10% of the target concentration by HPLC-UV.
# Prior to the conduct of toxicology studies, the effect of three to five daily doses of each compound on peripheral T-cell counts of female rats was determined (see lymphopenia measurements in rats above). In these lymphopenia studies, blood samples were collected onto EDTA at intervals after the final study dose. The collection times were not identical for each study, however, all studies included a sample collected 24 hours after the final dose. The lymphopenia data was used as a biomarker to select equally pharmacologically active doses for the subsequent toxicology study. […] The high dose in the toxicology study represented a ≧20-fold increment over the low dose.
# (§7) The dose producing a 10% increase in lung to body weight ratio was interpolated from a plot of dose versus lung to body weight. The lymphopenia response was measured 24 hours following the final dose of a 3-5 day multiple dose regimen.
# [4] = Evaluation of therapeutic index in rats: 5 or 14 day toxicology study, lung to body weight ratio; assay type: in vivo, Sprague-Dawley rat
# Description: All studies were conducted in non-fasted male and female Sprague-Dawely rats (Simonsen Laboratories). Rats were housed in an AAALAC accredited facility and the research was approved by the facilities Institutional Animal Care and Use Committee (IACUC). The animals were acclimated to the laboratory for at least 5 days prior to initiation of experiments.
# as §6
# In the toxicology studies, three male and three female rats per group were assigned to dosing groups using body weight based randomization. A control group in each study received vehicle. All animals were dosed orally by gavage on 5 or 14-consecutive days at a dose volume of 5 mL/kg/day. The animals were observed daily for any manifestations of adverse effect. Twenty-four hours after the final study dose, the rats were anesthetized with isoflurane and a terminal blood sample was taken by intra-cardiac puncture for hematology and clinical chemistry evaluation (IDEXX Laboratories, Sacramento, Calif.). The lungs with trachea were collected, weighed, and then prepared for histology by perfusion with 10% neutral buffered formalin via the trachea. The internally fixed lungs were then preserved in 10% neutral buffered formalin and submitted for histological examination (IDEXX).
# The dose of each compound resulting in a 10% increase in the lung to terminal body weight ratio was estimated for each compound by linear interpolation. The therapeutic index was estimated as the ratio of the dose producing 10% lung weight increase to the dose producing 50% T-Cell depletion.
# as §7
# [5] = agonist activity range, S1P1 CRE-bla CHOK1, 2 μM Forskolin, read-out: S1P1 ACTIVITY
SMILES,Effect of mutation on binding of compound (in words) (S1P1 R120A/E121A; S1P1 R120A/E121A),"Fold change in EC50 compared to wild type S1P1 (S1P1 R120A/E121A; S1P1 variant R120A/E121A, phospho-ERK1/2)",Effect of mutation on binding of compound (in words) (S1P1 N101A; S1P1 N101A),"Fold change in EC50 compared to wild type S1P1 (S1P1 N101A; S1P1 variant N101A, phospho-ERK1/2)",Effect of mutation on binding of compound (in words) (S1P1 W269L),Phosphorylation of ERK1/2 by S1P1 agonist (in words) (S1P1/EDG1 [1]),pEC50 (S1P1/EDG1 [2]; [5]),pEC50 (S1P2),pEC50 (S1P5),pEC50 (S1P3),"pEC50 (S1P1/EDG1 [2]; S1P1 CRE-bla CHOK1, with Forskolin, read-out: S1P1 agonist value (EC50))",pEC50 (S1P4),Mouse Lymphopenia (AUEC) [3],Dose Producing 50% lymphopenia (peripheral T-cell counts) [mg/kg],"Dose Resulting in 10% increase in lung weight ([4]; rats, oral, 5 or 14 consecutive days, interpolated from dose versus lung to body weight) [mg/kg]","TI 14 days ([4]; therapeutic index: dose producing 10% lung weight increase / dose producing 50% T-cell depletion, 14 day toxicology study in rats)"
CC(C)Oc1ccc(-c2nc(-c3cccc4c3CCC4NCCC(=O)O)no2)cc1C#N (racemic) [Compound 38],diminishes binding,11,had no effect on binding,2,abolishes binding,induce phosphorylation of ERK1/2,> 10.30,–,–,–,–,–,–,–,–,–
"CCOc1ccc(-c2nc(-c3cccc4c3CCC4O)no2)cc1OCC (racemic) [Compound 254, (+/−)-4-(5-(3,4,diethoxyphenyl)-1,2,4-oxadiazol-3-yl)-2,3-dihydro-1H-inden-1-ol, reference compound]",–,–,–,–,–,–,9.30 to 10.30,5.26,7.25,5.28,9.80,5.26,84,–,–,–
"CC(C)Oc1ccc(-c2nc(-c3cccc4c3CC[C@@H]4NCCO)no2)cc1C#N [Compound 86, (S)-5-(3-(1-(2-hydroxyethylamino)-2,3-dihydro-1H-inden-4-yl)-1,2,4-oxadiazol-5-yl)-2-isopropoxy benzonitrile]",–,–,–,–,–,–,–,5.02,7.26,5.00,–,5.38,1342,0.15,2.7,18
